From patent US7671084B2 (Wyeth, priority 2004, dated 2010) come the findings set out here.

A value given as a limit tells only on which side of the number the result lay.

One data set deals with T1, human ERβ (Homo sapiens, UniProt Q92731).
T1 construct: made in house; host or cells: E. coli (crude lysate)
Kind of data set: Competition with [3H]-17β-estradiol for binding to ERβ. As to conditions: ligand binding domain of human ERβ in E. coli crude lysate, 2 nM [3H]-17β-estradiol, 5-15 hours at room temperature. The method, then:
Representative examples of the invention were evaluated for their ability to compete with 17β-estradiol for both ERα and ERβ. This test procedure provides the methodology for one to determine whether a particular compound binds to the estrogen receptor (and is therefore “estrogenic”) and whether there is selectivity for ERα or ERβ. […] 17β-estradiol is included as a standard reference for comparison. The procedure used is briefly described below. A crude lysate of E. coli expressing the estrogen receptor ligand binding domains (D, E, & F) of human ERα or ERβ was prepared. Both receptors and compounds were diluted in 1× Dulbecco's PBS (DPBS) supplemented with 1 mM EDTA. Using a high binding masked microtiter plate, 100 uL of receptor (1 uG/well) was combined with 2 nm [^3H]-17β-estradiol and various concentrations of compound. After between 5 and 15 hours at room temperature, the plates were washed with DPBS/1 mM EDTA and bound radioactivity determined by liquid scintillation counting. The IC50 is defined as the concentration of compound that decreases total 17β-estradiol binding by 50%.

The target of another data set is T2, human ERα (Homo sapiens, UniProt P03372).
T2 construct: made in house; host or cells: E. coli (crude lysate)
T2 sequence (P03372 311-547 limits assumed): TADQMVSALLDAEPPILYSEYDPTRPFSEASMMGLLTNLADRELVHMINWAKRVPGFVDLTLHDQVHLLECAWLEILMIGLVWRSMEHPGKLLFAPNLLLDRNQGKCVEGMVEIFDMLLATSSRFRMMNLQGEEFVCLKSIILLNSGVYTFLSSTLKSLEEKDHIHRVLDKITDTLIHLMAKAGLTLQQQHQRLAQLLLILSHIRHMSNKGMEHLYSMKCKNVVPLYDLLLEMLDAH
Kind of data set: Competition with [3H]-17β-estradiol for binding to ERα. As to conditions: ligand binding domain of human ERα in E. coli crude lysate, 2 nM [3H]-17β-estradiol, 5-15 hours at room temperature; read-out: ERα (nM) IC50. The method, then: Representative examples of the invention were evaluated for their ability to compete with 17β-estradiol for both ERα and ERβ. This test procedure provides the methodology for one to determine whether a particular compound binds to the estrogen receptor (and is therefore “estrogenic”) and whether there is selectivity for ERα or ERβ. The values are shown in the Table infra and are reported as IC50s. 17β-estradiol is included as a standard reference for comparison. The procedure used is briefly described below. A crude lysate of E. coli expressing the estrogen receptor ligand binding domains (D, E, & F) of human ERα or ERβ was prepared. Both receptors and compounds were diluted in 1× Dulbecco's PBS (DPBS) supplemented with 1 mM EDTA. Using a high binding masked microtiter plate, 100 uL of receptor (1 uG/well) was combined with 2 nm [^3H]-17β-estradiol and various concentrations of compound. After between 5 and 15 hours at room temperature, the plates were washed with DPBS/1 mM EDTA and bound radioactivity determined by liquid scintillation counting. The IC50 is defined as the concentration of compound that decreases total 17β-estradiol binding by 50%.

T1 sequence (Q92731 264-498 limits assumed): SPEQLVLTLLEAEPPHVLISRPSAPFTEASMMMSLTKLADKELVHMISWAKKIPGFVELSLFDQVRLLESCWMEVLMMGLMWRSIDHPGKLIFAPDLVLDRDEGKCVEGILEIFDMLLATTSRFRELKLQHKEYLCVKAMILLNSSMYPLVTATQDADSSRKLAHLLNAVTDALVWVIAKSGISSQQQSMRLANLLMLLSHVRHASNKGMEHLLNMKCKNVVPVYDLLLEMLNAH

In turn, `Oc1ccc2c(c1)COc1c-2cc2ccc(O)cc2c1-c1ccsc1` [Example 31, 7-Thien-3-yl-5H-dibenzo[c,g]chromene-3,9-diol] yielded a melting point of 159 to 161 °C. This compound displayed an IC50 at human ERβ of 4.1 nM. Further, the IC50 at human ERα was found to be 152 nM.

Compound `Oc1ccc2c(c1)COc1c-2cc2ccc(O)cc2c1-c1cc(F)cc(F)c1` [Example 44, 7-(3,5-Difluorophenyl)-5H-dibenzo[c,g]chromene-3,9-diol] gave a melting point of 238 to 240 °C. The IC50 on human ERβ was determined as 10 nM. For the same compound, the IC50 at human ERα was 70 nM.

`Oc1ccc2c(c1)COc1c-2cc2ccc(O)cc2c1-c1cccs1` [Example 30, 7-Thien-2-yl-5H-dibenzo[c,g]chromene-3,9-diol] gave a melting point of 233 to 236 °C. Moreover, on human ERβ, the half-inhibitory concentration (IC50) is 1.4 nM. Further, on human ERα, the IC50 was determined as 75 nM.

Compound `CSc1ccc(-c2c3c(cc4ccc(O)cc24)-c2ccc(O)cc2CO3)cc1` [Example 56, 7-(4-Methylthiophenyl)-5H-dibenzo[c,g]chromene-3,9-diol] yielded a melting point of 195 to 198 °C. This compound also came in with an IC50 at human ERβ of 142 nM. The IC50 on human ERα is 804 nM.

`Oc1ccc2c(c1)COc1cc3c(Cl)c(O)ccc3cc1-2` [Example 6, 8-Chloro-5H-dibenzo[c,g]chromene-3,9-diol] had a melting point of 212 to 214 °C. The IC50 on human ERβ amounted to 0.53 nM. Further, at human ERα, the IC50 came out at 21 nM.

For `N#Cc1c2c(cc3ccc(O)cc13)-c1ccc(O)cc1CO2` [Example 14, 3,9-Dihydroxy-5H-dibenzo[c,g]chromene-7-carbonitrile], the melting point is over 280 °C. Also, the IC50 on human ERβ is 2.7 nM. In addition, on human ERα, the IC50 was determined as 32 nM.

In turn, `Oc1ccc2c(c1)COc1c-2cc2ccc(O)cc2c1-c1cc(Cl)cc(Cl)c1` [Example 45, 7-(3,5-Dichlorophenyl)-5H-dibenzo[c,g]chromene-3,9-diol] showed a melting point of 252 to 255 °C. Also, the IC50 at human ERβ was 34 nM. Also, the IC50 on human ERα was determined as 151 nM.

For the compound `Oc1ccc2c(c1)COc1c-2cc2ccc(O)cc2c1-c1ccc(Cl)cc1` [Example 28, 7-(4-Chlorophenyl)-5H-dibenzo[c,g]chromene-3,9-diol], the melting point was 239 to 242 °C. This compound had a concentration for half-maximal inhibition (IC50) on human ERβ of 9.3 nM. The IC50 at human ERα was 320 nM.

Regarding `Cc1cc(-c2c3c(cc4ccc(O)cc24)-c2ccc(O)cc2CO3)ccc1F` [Example 46, 7-(3-Methyl-4-Fluorophenyl)-5H-dibenzo[c,g]chromene-3,9-diol], the melting point is 185 to 188 °C. Besides, on human ERβ, the IC50 is 39 nM. Further, the 50% inhibitory concentration (IC50) on human ERα is 709 nM.

Take `Cc1cccc(-c2c3c(cc4ccc(O)cc24)-c2ccc(O)cc2CO3)c1` [Example 25, 7-(3-Tolyl)-5H-dibenzo[c,g]chromene-3,9-diol]: the melting point fell in the range of 219 to 222 °C. At human ERβ, this compound showed an IC50 of 4.2 nM. Moreover, the IC50 on human ERα turned out to be 117 nM.

The compound `Oc1ccc2c(c1)COc1c-2cc2ccc(O)cc2c1-c1ccc(F)cc1` [Example 29, 7-(4-Fluorophenyl)-5H-dibenzo[c,g]chromene-3,9-diol] gave a melting point of 229 to 232 °C. In addition, at human ERβ, the IC50 stood at 6.4 nM. Further, the IC50 on human ERα amounted to 298 nM.

Take `Oc1ccc2c(c1)COc1c-2cc2ccc(O)cc2c1-c1ccc(OC(F)(F)F)cc1` [Example 59, 7-(4-Trifluoromethoxyphenyl)-5H-dibenzo[c,g]chromene-3,9-diol]: the melting point was in the range of 245 to 248 °C. The same compound gave a half-maximal inhibitory concentration (IC50) at human ERβ of 34 nM. The IC50 at human ERα came out at 1220 nM.

With `Oc1ccc2c(c1)COc1c-2cc2ccc(O)cc2c1-c1ccccn1` [Example 54, 7-(2-Pyridyl)-5H-dibenzo[c,g]chromene-3,9-diol], the melting point is over 220 °C. This compound also registered an IC50 at human ERβ of 108 nM. In addition, the IC50 on human ERα is over 5000 nM.

`Oc1ccc2c(c1)COc1c-2cc2ccc(O)cc2c1-c1ccco1` [Example 48, 7-(2-Furyl)-5H-dibenzo[c,g]chromene-3,9-diol]: the melting point was in the range of 158 to 163 °C. For the same compound, the IC50 on human ERβ is 3.5 nM. The IC50 on human ERα is 146 nM.

Usually IC50 stands for the point on the concentration scale where inhibition reaches its midpoint. One may read the melting point as the temperature of the solid-liquid transition.
